These results are taken from ChEMBL document CHEMBL3751672, “PPAR agonists based on stilbene and its bioisosteres: biological evaluation and docking studies” (Medchemcomm, 2015).

Each structure is given as a SMILES string. Activity calls are given as the source filed them. The calls are words filed in the database; no cut-off is given here.

What all share (assay type): cell-based
For assay [1], the target named is T1, Peroxisome proliferator-activated receptor alpha (Homo sapiens, UniProt Q07869).
T1 sequence (Q07869 whole entry): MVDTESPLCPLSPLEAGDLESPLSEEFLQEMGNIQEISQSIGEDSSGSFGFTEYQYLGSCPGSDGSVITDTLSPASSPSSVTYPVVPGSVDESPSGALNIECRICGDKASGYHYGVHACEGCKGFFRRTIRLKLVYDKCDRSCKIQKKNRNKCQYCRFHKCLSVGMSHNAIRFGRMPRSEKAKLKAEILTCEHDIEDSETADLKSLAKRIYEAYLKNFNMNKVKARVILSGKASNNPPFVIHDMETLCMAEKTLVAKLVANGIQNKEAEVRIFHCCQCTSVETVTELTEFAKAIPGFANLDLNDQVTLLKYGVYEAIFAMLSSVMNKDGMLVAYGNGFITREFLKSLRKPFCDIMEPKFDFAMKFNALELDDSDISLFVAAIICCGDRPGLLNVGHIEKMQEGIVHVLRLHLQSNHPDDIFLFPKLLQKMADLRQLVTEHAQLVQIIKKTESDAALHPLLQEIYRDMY
Put plainly: Transactivation of human PPARalpha expressed in HEK293 cells incubated for 18 hrs by dual luciferase reporter gene assay. In general terms: Reporter assays use an easily measured gene product as a stand-in for the process of interest.

Assay [2] addresses T2, Peroxisome proliferator-activated receptor alpha (Homo sapiens) (UniProt Q07869).
T2 sequence (whole entry): T1 sequence (Q07869 whole entry)
The assay is described as follows: Transactivation of human PPARalpha expressed in HEK293 cells at 150 uM incubated for 18 hrs by dual luciferase reporter gene assay relative to gemfibrozil.

Assay [3] has as its target T2, Peroxisome proliferator-activated receptor alpha (Homo sapiens). The assay is described as follows: Agonist activity at PPARalpha in human HepG2 cells assessed as increase in CPT1A gene expression at 10 uM incubated for 24 hrs by real time quantitative PCR method.
The target is the same in assay [4]. Put plainly: Agonist activity at PPARalpha in human HepG2 cells assessed as increase in CPT1A gene expression at 100 uM incubated for 24 hrs by real time quantitative PCR method relative to gemfibrozil.
Assay [5] has the same target. The assay is described as follows: Agonist activity at PPARalpha in human HepG2 cells assessed as increase in CPT1A gene expression incubated for 24 hrs by real time quantitative PCR method.
The target is the same in assay [6]. The assay is described as follows: Agonist activity at PPARalpha in human HepG2 cells assessed as increase in CPT1A gene expression at EC50 incubated for 24 hrs by real time quantitative PCR method.
The target is the same in assay [7]. The assay is described as follows: Agonist activity at PPARalpha in human HepG2 cells assessed as increase in CPT1A gene expression at 10 uM incubated for 24 hrs by real time quantitative PCR method relative to gemfibrozil.

`CC(C)(CCCOc1ccc(/C=C/c2ccncc2)cc1)C(=O)O` registered an EC50 in assay [1] of 103 µM. Moreover, in assay [2], the Efficacy came to 115%.
In assay [2], `CC(C)(CCCOc1ccc(/C=C/c2ccccc2)cc1Cl)C(=O)O` gave an Efficacy of 46%.
`CC(C)c1ccc(/C=C/c2ccc(OCCCC(C)(C)C(=O)O)cc2)cc1` returned an Efficacy in assay [2] of 17%.
With `CC(C)(CCCOc1ccc(/C=C/c2ccc(Cl)cc2)cc1)C(=O)O`, the result in assay [3] was Active. The fold change (FC) in assay [4] was determined as 2. For the same molecule, a half-maximal effect in assay [1] (EC50) was put at 0.8 µM. In assay [2], this molecule yielded an Efficacy of 227% and a fold change (FC) of 2. Further, the Activity result in assay [5] was “Dose-dependent effect”.
`COc1ccc(/C=C/c2ccc(OCCCC(C)(C)C(=O)O)cc2)cc1`: in assay [1], the EC50 stood at 28.4 µM. Further, the Efficacy in assay [2] is 164%.
For `CC(C)(CCCOc1ccc(/C=C/c2ccc(C(F)(F)F)cc2)cc1)C(=O)O`, the result in assay [3] was Active. The fold change (FC) in assay [4] was found to be 2. The concentration giving a half-maximal response (EC50) in assay [1] amounted to 0.76 µM. In assay [2], this molecule had an Efficacy of 205% and a fold change (FC) of 2. Further, the Activity result in assay [5] is “Dose-dependent effect”.
In turn, `CC(C)(CCCOc1ccc(/C=C/c2ccc3ccccc3c2)cc1)C(=O)O` came in with an EC50 in assay [1] of 90 µM. In assay [2], this molecule came in with an Efficacy of 123%.
As to `Cc1ccc(C)c(OCCCC(C)(C)C(=O)O)c1`, the result in assay [6] was Active.
`Cc1ccc(/C=C/c2ccc(OCCCC(C)(C)C(=O)O)cc2)cc1` had an EC50 in assay [1] of 3.3 µM. This molecule also gave an Efficacy in assay [2] of 118%.
`CC(C)(CCCOc1ccc(/C=C/c2ccsc2)cc1)C(=O)O` displayed a half-maximal effective concentration (EC50) in assay [1] of 3.8 µM. In assay [2], this molecule came in with an Efficacy of 152%.
With `CC(C)(CCCOc1ccc(/C=C/c2ccc(N)cc2)cc1)C(=O)O`, in assay [2], the Efficacy was 29%.
On the same count and under the same terms, to `CC(C)(CCCOc1ccc(/C=C/c2ccc(Cl)cc2Cl)cc1)C(=O)O` belongs 32%; to `CC(C)(CCCOc1ccc(/C=C/c2ccc(Cl)cc2Cl)cc1Cl)C(=O)O`, 20%; to `CC(C)(CCCOc1ccc(/C=C/c2ccc(C#N)cc2)cc1)C(=O)O`, 23%.
`CC(C)(CCCOc1ccc(/C=C/c2ccccc2)cc1)C(=O)O`: the fold change (FC) worked out at 2 in assay [7], 6 in assay [4] and 2 in assay [2]. Besides, the Activity entry in assay [5] was “Dose-dependent effect”.

In general, EC50 refers to the concentration needed to bring the measured effect to its halfway point.
